DBAASP
Converted amounts (≈) assume the structure as drawn. Values belong to the molecule of their own block, whether it stands above or below them.

Tests used:
Test in all cases: ≥ marks a high value that may be exact or a test limit, other limits are often not marked, values filed in µg/mL are converted to µM
Bacillus subtilis = system: Bacillus subtilis
Serratia marcescens = system: Serratia marcescens
Candida albicans = system: Candida albicans
Salmonella typhimurium = system: Salmonella typhimurium
Proteus mirabilis = system: Proteus mirabilis
Micrococcus luteus = system: Micrococcus luteus
Pseudomonas aeruginosa = system: Pseudomonas aeruginosa
Escherichia coli = system: Escherichia coli
[1] = system: Staphylococcus epidermidis
Saccharomyces cerevisiae = system: Saccharomyces cerevisiae
Shigella dysenteriae = system: Shigella dysenteriae
Escherichia coli K99 = system: Escherichia coli K99
[2] = system: Salmonella enterica subsp. enterica serovar Typhimurium C77-31
[3] = system: Enterococcus faecalis ATCC 29212
[4] = system: Staphylococcus aureus ATCC 25923
Escherichia coli UB1005 = system: Escherichia coli UB1005
[5] = system: Salmonella enterica subsp. enterica serovar Pullorum C79-13
[6] = system: Salmonella enterica subsp. enterica serovar Typhimurium ATCC 14028
[7] = system: Escherichia coli ATCC 25922
Escherichia coli K88 = system: Escherichia coli K88
[8] = system: Bacillus subtilis CMCC 63501
Escherichia coli 078 = system: Escherichia coli 078
[9] = system: Staphylococcus epidermidis ATCC 12228
[10] = system: Staphylococcus aureus ATCC 29213
[11] = system: Escherichia coli NEB5alpha
[12] = system: Bacillus subtilis ATCC 6051
[13] = system: Pseudomonas aeruginosa ATCC 27853
[14] = system: Escherichia coli DH5alpha
[15] = system: Bacillus subtilis DSM 347
[16] = system: Franconibacter helveticus DSM 18396
[17] = system: Kocuria rhizophila DSM 348
[18] = system: Staphylococcus aureus ATCC 33591
[19] = system: Staphylococcus epidermidis ATCC 35984
Klebsiella aerogenes = system: Klebsiella aerogenes
Enterobacter cloacae = system: Enterobacter cloacae
Staphylococcus aureus = system: Staphylococcus aureus
[20] = system: Pseudomonas aeruginosa PAO1
Escherichia coli 1 = system: Escherichia coli 1
Escherichia coli ML-35p = system: Escherichia coli ML-35p

SMILES: CC[C@H](C)[C@H](NC(=O)CN)C(=O)N[C@@H](CC(C)C)C(=O)N[C@@H](CC(=O)O)C(=O)N[C@H](C(=O)N[C@@H](CC(C)C)C(=O)N[C@@H](CCCCN)C(=O)N[C@@H](CCC(N)=O)C(=O)N[C@@H](Cc1ccccc1)C(=O)N[C@@H](C)C(=O)N[C@@H](CCCCN)C(=O)NCC(=O)N[C@H](C(=O)NCC(=O)N[C@@H](CCCCN)C(=O)N[C@@H](CC(=O)O)C(=O)N[C@@H](CC(C)C)C(=O)N[C@H](C(=O)N[C@@H](CCCCN)C(=O)NCC(=O)N[C@@H](C)C(=O)N[C@@H](C)C(=O)N[C@@H](CCC(N)=O)C(=O)NCC(=O)O)C(C)C)C(C)C)[C@@H](C)O [GILDTLKQFAKGVGKDLVKGAAQG]
- MIC (Bacillus subtilis): ≥ 41.4 µM
- MIC (Serratia marcescens): ≥ 41.4 µM
- MIC (Candida albicans): > 41.4 µM
- MIC (Salmonella typhimurium): ≥ 41.4 µM
- MIC (Proteus mirabilis): 20.7 µM (≈ 50 µg/mL)
- MIC (Micrococcus luteus): 2.07 µM (≈ 5 µg/mL)
- MIC (Pseudomonas aeruginosa): 20.7 µM (≈ 50 µg/mL)
- MIC (Escherichia coli): 20.7 µM (≈ 50 µg/mL)
- MIC [1]: 31.1 µM (≈ 75 µg/mL)
- MIC (Saccharomyces cerevisiae): 20.7 µM (≈ 50 µg/mL)
- MIC (Shigella dysenteriae): 20.7 µM (≈ 50 µg/mL)

SMILES: CC[C@H](C)[C@H](NC(=O)CN)C(=O)NCC(=O)N[C@@H](CCCCN)C(=O)N[C@@H](Cc1ccccc1)C(=O)N[C@@H](CC(C)C)C(=O)N[C@@H](Cc1cnc[nH]1)C(=O)N[C@@H](CO)C(=O)N[C@@H](C)C(=O)N[C@@H](CCCCN)C(=O)N[C@@H](CCCCN)C(=O)N[C@@H](Cc1ccccc1)C(=O)NCC(=O)N[C@@H](CCCCN)C(=O)N[C@@H](C)C(=O)N[C@@H](Cc1ccccc1)C(=O)N[C@H](C(=O)NCC(=O)N[C@@H](CCC(=O)O)C(=O)N[C@@H](C)C(=O)N[C@@H](CCSC)C(=O)N[C@@H](CC(N)=O)C(=O)N[C@@H](CO)C(=O)O)C(C)C [GIGKFLHSAKKFGKAFVGEAMNS]
- MIC [14]: ≥ 128 µM
- MIC [15]: 16 µM (≈ 38.8 µg/mL)
- MIC [16]: ≥ 64 µM
- MIC [17]: ≥ 256 µM

SMILES: CC(C)C[C@H](NC(=O)[C@H](CCCCN)NC(=O)[C@H](CCCCN)NC(=O)[C@H](Cc1ccccc1)NC(=O)[C@H](Cc1ccccc1)NC(=O)[C@H](CCCCN)NC(=O)[C@H](CCCCN)NC(=O)[C@@H](N)Cc1ccccc1)C(=O)N[C@@H](CCCCN)C(=O)N[C@@H](CC(N)=O)C(=O)N[C@@H](CO)C(=O)N[C@H](C(=O)N[C@@H](CCCCN)C(=O)N[C@@H](CCCCN)C(=O)N[C@@H](CCCN=C(N)N)C(=O)O)C(C)C [FKKFFKKLKNSVKKR]
- MIC (Klebsiella aerogenes): 8.82 µM (≈ 17 µg/mL)
- MIC [4]: 21.3 µM (≈ 41 µg/mL)
- MIC (Pseudomonas aeruginosa): 3.63 µM (≈ 7 µg/mL)
- MIC (Escherichia coli): 6.23 µM (≈ 12 µg/mL)
- MIC (Enterobacter cloacae): 4.15 µM (≈ 8 µg/mL)
- MIC (Staphylococcus aureus): 3.63 µM (≈ 7 µg/mL)
- MIC [20]: 3.63 µM (≈ 7 µg/mL)
- MIC [7]: 6.75 µM (≈ 13 µg/mL)
- MIC (Escherichia coli 1): 2.6 µM (≈ 5 µg/mL)
- MIC (Escherichia coli ML-35p): 2.6 µM (≈ 5 µg/mL)
- MIC [13]: 4.15 µM (≈ 8 µg/mL)

SMILES: CC[C@H](C)[C@H](N)C(=O)NCC(=O)N[C@@H](CCCCN)C(=O)N[C@@H](Cc1ccccc1)C(=O)N[C@@H](CC(C)C)C(=O)N[C@@H](CCCCN)C(=O)N[C@@H](CCCCN)C(=O)N[C@@H](C)C(=O)N[C@@H](CCCCN)C(=O)N[C@@H](CCCCN)C(=O)N[C@@H](Cc1ccccc1)C(=O)NCC(N)=O [IGKFLKKAKKFG]
- MIC [4]: > 375 µM
- MIC [18]: ≥ 375 µM
- MIC [19]: ≥ 188 µM
- MIC [13]: 133 µM (≈ 181 µg/mL)

Second part, the molecule after the results:

- MIC (Escherichia coli K99): 4 µM (≈ 6.51 µg/mL)
- MIC [2]: ≥ 32 µM
- MIC [3]: 32 µM (≈ 52.1 µg/mL)
- MIC [4]: 32 µM (≈ 52.1 µg/mL)
- MIC (Escherichia coli UB1005): 8 µM (≈ 13 µg/mL)
- MIC [5]: 2 µM (≈ 3.25 µg/mL)
- MIC [6]: 32 µM (≈ 52.1 µg/mL)
- MIC [7]: 8 µM (≈ 13 µg/mL)
- MIC (Escherichia coli K88): 2 µM (≈ 3.25 µg/mL)
- MIC [8]: 8 µM (≈ 13 µg/mL)
- MIC (Escherichia coli 078): 8 µM (≈ 13 µg/mL)
- MIC [9]: 64 µM (≈ 104 µg/mL)
- MIC [10]: 32 µM (≈ 52.1 µg/mL)
SMILES: CC[C@H](C)[C@H](NC(=O)[C@H](Cc1c[nH]c2ccccc12)NC(=O)[C@H](CCCCN)NC(=O)[C@H](Cc1c[nH]c2ccccc12)NC(=O)[C@@H](NC(=O)[C@H](CCCCN)NC(=O)CNC(=O)[C@@H](NC(=O)[C@H](CCCCN)NC(=O)[C@H](CCCCN)NC(=O)[C@H](Cc1c[nH]c2ccccc12)NC(=O)[C@@H](N)CCCN=C(N)N)[C@@H](C)CC)C(C)C)C(N)=O [RWKKIGKVWKWI]

- MIC [11]: ≥ 500 µM
- MIC [12]: ≥ 500 µM
SMILES: CC[C@H](C)[C@H](NC(=O)[C@H](C)NC(=O)CNC(=O)[C@H](CCCCN)NC(=O)[C@H](CCC(=O)O)NC(=O)[C@H](CCC(=O)O)NC(=O)[C@H](CC(=O)O)NC(=O)[C@H](CCC(=O)O)NC(=O)[C@H](CC(=O)O)NC(=O)[C@H](CCCN=C(N)N)NC(=O)CNC(=O)[C@H](CCC(N)=O)NC(=O)[C@H](CC(C)C)NC(=O)[C@H](CCCCN)NC(=O)[C@H](CC(=O)O)NC(=O)[C@@H](NC(=O)[C@@H](NC(=O)[C@H](Cc1cnc[nH]1)NC(=O)[C@@H](N)CCCN=C(N)N)[C@@H](C)CC)C(C)C)C(=O)N[C@H](C(=O)N[C@@H](CCCCN)C(=O)N[C@H](C(=O)N[C@@H](CCCCN)C(=O)NCC(=O)NCC(=O)N[C@@H](CC(C)C)C(=O)O)C(C)C)C(C)C [RHIVDKLQGRDEDEEKGAIVKVKGGL]

- MIC [2]: ≥ 128 µM
- MIC [3]: > 128 µM
- MIC [5]: ≥ 128 µM
- MIC [7]: 16 µM (≈ 21.5 µg/mL)
- MIC [8]: 16 µM (≈ 21.5 µg/mL)
- MIC [9]: > 128 µM
- MIC [10]: > 128 µM
- MIC [13]: > 128 µM
SMILES: NC(=O)[C@@H]1CCCN1C(=O)[C@H](CCCN=C(N)N)NC(=O)[C@H](CS)NC(=O)[C@H](Cc1ccccc1)NC(=O)[C@H](CCCN=C(N)N)NC(=O)[C@H](CCCN=C(N)N)NC(=O)[C@H](CCCN=C(N)N)NC(=O)[C@H](CS)NC(=O)[C@H](CCCN=C(N)N)NC(=O)[C@@H]1CCCN1 [PRCRRRFCRP]

- MIC [11]: ≥ 681 µM
- MIC [12]: ≥ 1360 µM
- MIC [7]: 1360 µM (≈ 1650 µg/mL)
SMILES: CC[C@H](C)[C@H](N)C(=O)N[C@H](C(=O)N[C@@H](CC(C)C)C(=O)N[C@@H](CC(N)=O)C(=O)N1CCC[C@H]1C(=O)N[C@@H](Cc1c[nH]c2ccccc12)C(=O)N[C@@H](CC(=O)O)C(=O)N[C@@H](CCC(N)=O)C(=O)N[C@H](C(=O)N[C@@H](CCCCN)C(=O)O)C(C)C)C(C)C [IVLNPWDQVK]

- MIC [4]: > 375 µM
- MIC [18]: ≥ 375 µM
- MIC [19]: ≥ 375 µM
- MIC [13]: 265 µM (≈ 362 µg/mL)
SMILES: CC(C)C[C@H](N)C(=O)N[C@@H](CCCCN)C(=O)N[C@@H](CCCCN)C(=O)N[C@@H](C)C(=O)N[C@@H](CCCCN)C(=O)N[C@@H](CCCCN)C(=O)N[C@@H](Cc1ccccc1)C(=O)NCC(=O)N[C@@H](CCCCN)C(=O)N[C@@H](C)C(=O)N[C@@H](Cc1ccccc1)C(=O)N[C@H](C(N)=O)C(C)C [LKKAKKFGKAFV]
